Results as given in patent US20210214375A1 (LUNDBECK LA JOLLA RESEARCH CENTER, INC., priority 2017, published 2021).
Read-outs that look alike come from different tables or passages of the source.

Legend:
Format in all cases: biochemical
MGLL = target: T1, MGLL (Mus musculus, UniProt O35678); assay: In vitro competitive activity-based protein profiling, mouse brain proteome
T1 construct: Brain; from tissue; host or cells: mouse brain proteome
T1 sequence (O35678 1-303): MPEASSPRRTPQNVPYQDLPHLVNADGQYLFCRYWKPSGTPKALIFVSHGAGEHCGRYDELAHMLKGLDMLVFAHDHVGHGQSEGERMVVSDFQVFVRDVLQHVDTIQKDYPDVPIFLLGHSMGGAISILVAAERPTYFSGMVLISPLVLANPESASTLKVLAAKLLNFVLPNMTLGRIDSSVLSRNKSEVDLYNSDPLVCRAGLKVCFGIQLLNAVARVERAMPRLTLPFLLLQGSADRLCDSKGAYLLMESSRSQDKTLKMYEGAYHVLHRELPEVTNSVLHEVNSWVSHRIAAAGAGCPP
Method: [Worded in the source for another species; this species is reported under the same test.] (§1) Proteomes (human prefrontal cortex or cell membrane fractions) (50 μL, 1.0 mg/mL total protein concentration) were preincubated with varying concentrations of inhibitors at 37° C. After 30 min, FP—Rh or HT-01 (1.0 μL, 50 μM in DMSO) was added and the mixture was incubated for another 30 min at room temperature. Reactions were quenched with SDS loading buffer (15 μL-4×) and run on SDS-PAGE.

ABHD6 = target: T2, ABHD6 (Mus musculus, UniProt Q8R2Y0); assay: In vitro competitive activity-based protein profiling, mouse brain proteome, ABHD6; details: mouse
T2 construct: Brain; from tissue; host or cells: mouse brain proteome
T2 sequence (Q8R2Y0 1-336): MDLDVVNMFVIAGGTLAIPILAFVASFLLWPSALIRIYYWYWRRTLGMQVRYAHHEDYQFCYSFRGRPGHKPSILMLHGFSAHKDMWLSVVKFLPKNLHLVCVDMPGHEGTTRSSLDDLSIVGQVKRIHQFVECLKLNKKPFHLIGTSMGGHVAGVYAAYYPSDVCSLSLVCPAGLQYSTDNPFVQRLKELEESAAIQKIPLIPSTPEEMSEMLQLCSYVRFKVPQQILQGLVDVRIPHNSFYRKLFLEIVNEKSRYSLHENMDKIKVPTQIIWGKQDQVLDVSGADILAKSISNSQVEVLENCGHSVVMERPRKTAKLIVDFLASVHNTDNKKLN
Method: [Worded in the source for another target; this target is reported under the same test.] as §1

MAGL = target: T3, MAGL (Homo sapiens, UniProt Q99685); assay: In vitro competitive activity-based protein profiling (gel-based, FP-Rh or HT-01 probe)
T3 construct: Proteomes (human prefrontal cortex or cell membrane fractions); from tissue
T3 sequence (Q99685 1-303): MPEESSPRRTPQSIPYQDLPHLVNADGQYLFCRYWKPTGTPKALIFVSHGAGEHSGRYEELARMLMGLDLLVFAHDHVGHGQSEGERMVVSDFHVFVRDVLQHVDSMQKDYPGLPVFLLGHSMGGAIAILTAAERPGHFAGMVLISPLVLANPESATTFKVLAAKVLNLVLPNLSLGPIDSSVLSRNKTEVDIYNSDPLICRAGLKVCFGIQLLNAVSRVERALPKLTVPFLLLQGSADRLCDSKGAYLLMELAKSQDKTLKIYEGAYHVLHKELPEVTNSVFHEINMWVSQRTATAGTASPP
Method: Compounds are tested to assess their MAGL and serine hydrolase activity using the following in vitro and in vivo assays.
as §1

[1] = PFC (prefrontal cortex) proteome, read-out: IC50 MGLL PFC (Human)

SMILES	IC50 (MGLL) [µM]	IC50 (ABHD6) [µM]	IC50 (MAGL; [1]) [µM]	IC50 (MAGL; PC3 proteome, read-out: IC50 MGLL PC3 (Human)) [µM]
CN(Cc1cc(N2CCCC2)cc(C(F)(F)F)c1)C1(C)CCN(C(=O)OC(C(F)(F)F)C(F)(F)F)CC1 [Example 76, 1,1,1,3,3,3-Hexafluoropropan-2-yl 4-methyl-4-(methyl(3-(pyrrolidin-1-yl)-5-(trifluoromethyl)benzyl)amino) piperidine-1-carboxylate]	0.1 to 1	> 1	< 0.1	
O=C(O)C1CCN(c2cc(C(F)(F)F)ccc2CN2CCC3(CC2)CCN(C(=O)OC(C(F)(F)F)C(F)(F)F)C3)CC1 [Example 195, 1-(2-((2-(((1,1,1,3,3,3-Hexafluoropropan-2-yl)oxy)carbonyl)-2,8-diazaspiro[4.5]decan-8-yl)methyl)-5-(trifluoromethyl)phenyl)piperidine-4-carboxylic acid]	0.1 to 1	> 1	0.1 to 1	< 0.1
CS(=O)(=O)N1CCC2(CCN(c3cc(Cl)cc(CN4CCCC45CN(C(=O)OC(C(F)(F)F)C(F)(F)F)C5)c3)CC2)C1 [Example 232]	> 1	0.1 to 1		
CC(=O)N1CCCc2cccc(CN3CCC4(CC3)CN(C(=O)OC(C(F)(F)F)C(F)(F)F)C4)c21 [Example 152, 1,1,1,3,3,3-Hexafluoropropan-2-yl 7-((1-acetyl-1,2,3,4-tetrahydroquinolin-8-yl)methyl)-2,7-diazaspiro[3.5]nonane-2-carboxylate]	< 0.1	< 0.1		
O=C(OC(C(F)(F)F)C(F)(F)F)N1CCC2(CC1)CN(Cc1ccc(Cl)c(Cl)c1)C2 [Example 67, 1,1,1,3,3,3-Hexafluoropropan-2-yl 2-(3,4-dichlorobenzyl)-2,7-diazaspiro[3.5]nonane-7-carboxylate]	< 0.1	< 0.1		
CC(=O)N1CCCc2cccc(CN3CC4(CCN(C(=O)OC(C(F)(F)F)C(F)(F)F)CC4)C3)c21 [Example 15, 1,1,1,3,3,3-Hexafluoropropan-2-yl 2-((1-acetyl-1,2,3,4-tetrahydroquinolin-8-yl)methyl)-2,7-diazaspiro[3.5]nonane-7-carboxylate]	< 0.1	0.1 to 1		
CN1CC2CN(c3cc(Cl)ccc3CN3CCN(C(=O)OC(C(F)(F)F)C(F)(F)F)CC3)CC2C1 (stereo not drawn) [Example 206, 1,1,1,3,3,3-Hexafluoropropan-2-yl 4-(4-chloro-2-(5-methylhexahydro-pyrrolo[3,4-c]pyrrol-2(1H)-yl)benzyl)piperazine-1-carboxylate]	0.1 to 1	> 1		
O=C(OC(C(F)(F)F)C(F)(F)F)N1CCC2(CC1)CN(Cc1ccc(Cl)cc1N1CCCC1)C2 [Example 34]	< 0.1	0.1 to 1		
O=C(OC(C(F)(F)F)C(F)(F)F)N1CCC2(CC1)CN(Cc1ccc(C(F)(F)F)cc1N1CCCCC1)C2 [Example 35]	< 0.1	0.1 to 1		
CN1CCCC12CCN(c1cc(Cl)ccc1CN1CCN(C(=O)OC(C(F)(F)F)C(F)(F)F)CC1)CC2 [Example 214, 1,1,1,3,3,3-Hexafluoropropan-2-yl 4-(4-chloro-2-(1-methyl-1,8-diazaspiro[4.5]decan-8-yl)benzyl)piperazine-1--carboxylate]	0.1 to 1	> 1		
O=C(OC(C(F)(F)F)C(F)(F)F)N1CC2(CCN(Cc3ccc(C(F)(F)F)cc3N3CCOCC3)CC2)C1 [Example 40, 1,1,1,3,3,3-Hexafluoropropan-2-yl 7-(2-morpholino-4-(trifluoromethyl)benzyl)-2,7-diazaspiro[3.5]nonane-2-carboxylate]	< 0.1	< 0.1		
O=C(OC(C(F)(F)F)C(F)(F)F)N1CCC2(CCCN2C(=O)c2ccc(Cl)cc2)CC1 [Example 13, 1,1,1,3,3,3-Hexafluoropropan-2-yl 1-(4-chlorobenzoyl)-1,8-diazaspiro[4.5]decane-8-carboxylate]	< 0.1	0.1 to 1		
